pIC50: −log10 of the molar value.
Legend:
GM3 in B16/F10 cells = experiment: Flow cytometry of cell surface GM3 in intact cells; assay type: cell-based
Excerpt: Since […] the first and rate-limiting step in the biosynthesis of glycosphingolipids, a flow cytometry assay that measured cell surface levels of GM 1 and GM3 was used to indirectly assess the activity of the inhibitor in intact cells.

α-glucosidase I and II = experiment: α-Glucosidase I and II specificity assay; assay type: biochemical
[1] = target: glycogen debranching enzyme (α-1,6-glucosidase) (Homo sapiens, UniProt P35573); experiment: Glycogen debranching enzyme cell free assay; assay type: biochemical
Experimental: The specificity of Formula (I) Hemitartrate was evaluated in a series of in vitro cell-based and cell-free assays. The intestinal glycosidase enzymes were assayed in rat tissue homogenates (see U. Andersson, et al., Biochem. Pharm. 59 (2000) 821-829, the entire teachings of which are incorporated herein by reference), and the glycogen debranching enzyme was assayed in a cell free assay as described (see U. Andersson, et al., Biochem. Pharm. 67 (2004) 697-705, the entire teachings of which are incorporated herein by reference).

Fabry mice = experiment: Monotherapy of Fabry mice, drug in diet; assay type: in vivo, mouse; conditions: 300 mg/kg per day in diet, 11 months
Experimental: For the monotherapy studies, Fabry mice were put on study at 1 month old (prevention model). Treatment groups received Formula (I) Hemitartrate (Genzyme Corp., Cambridge, Mass.) as a component of the pellet food diet. The drug was formulated at 0.15% (w/w) in standard 5053 mouse chow (TestDiet, Richmond, Ind.) and provided ad libitum.
(§1) Quantitation of GL-3 was by Tandem Mass Spectrometry essentially as for GL-1.
(§2) Hot plate Assay was performed as described previously (Ziegler, R J et al. Molec. Ther. 15(3), 492-500 (2007).
SRT was evaluated in a mouse model of Fabry disease, which is caused by a deficiency of α-galactosidase A activity. Therapy with Formula (I) Hemitartrate started with one month-old Fabry mice and continued until the mice reached one year of age. […] Behavioral tests (i.e., hot-plate assay) and biochemical tests (i.e., urinalysis and GL-3 level analysis in tissues/blood/urine) of the mice were performed bimonthly.

Fabry-Rag mice = experiment: Combination ERT/SRT therapy of Fabry-Rag mice; assay type: in vivo, mouse; conditions: ERT 1 mg/kg α-galactosidase A i.v., SRT 300 mg/kg daily in diet
Experimental: For the combination therapy studies, Fabry-Rag mice were put on study at 3 months old (treatment model). Mice in group A received intravenous injections of recombinant human alpha-galactosidase A (Genzyme Corp.) at a dose of 1 mg/kg every 2 months (i.e. 3, 5, 7 and 9 months old). Group B received the same intravenous enzyme doses plus it received Formula (I) Hemitartrate (Genzyme Corp., Cambridge, Mass.) as a component of the pellet food diet. The drug was formulated at 0.15% (w/w) in standard 5053 mouse chow (TestDiet, Richmond, Ind.) and provided ad libitum. […] Group C received enzyme injections every 4 months (i.e. 3 and 7 months old) and was on the same drug-in-food diet as group B. Group D received only the drug-in-food diet (same as groups B and C). Group E was untreated Fabry-Rag mice and group F were wild-type controls.
as §1, §2
Beginning at three-months of age, the mice were subjected to a schedule of behavioral tests (i.e. hot-plate assay) and biochemical tests (i.e., GL-3 level analysis in tissues/blood/urine), as shown in FIG. 10.

[2] = test system: Gaucher disease type 1 (GD1) patients; experiment: Phase 2 clinical trial in adults with Gaucher disease type 1; assay type: in vivo, human; conditions: 50 or 100 mg bid orally
Experimental: Patients were to have splenomegaly (volume […]) and either thrombocytopenia (platelets 45,000-100,000/mm^3) or anemia (hemoglobin 8-10 g/dl, female; 8-11 g/dl, male). None received enzyme replacement or substrate reduction therapy in the prior 12 months. The composite primary efficacy endpoint is […] (+0.5 g/dl) or platelet count (+15%) after 52 weeks of treatment. Liver volume, chitotriosidase, glucosylceramide are also assessed. Patients continue to be treated and monitored long-term.

[3] = both, human, in vivo
Excerpt: This was an open-label, fixed-sequence study in 36 healthy subjects (17 males and 19 females).

Sequence of glycogen debranching enzyme (α-1,6-glucosidase) (P35573 whole entry, species assumed): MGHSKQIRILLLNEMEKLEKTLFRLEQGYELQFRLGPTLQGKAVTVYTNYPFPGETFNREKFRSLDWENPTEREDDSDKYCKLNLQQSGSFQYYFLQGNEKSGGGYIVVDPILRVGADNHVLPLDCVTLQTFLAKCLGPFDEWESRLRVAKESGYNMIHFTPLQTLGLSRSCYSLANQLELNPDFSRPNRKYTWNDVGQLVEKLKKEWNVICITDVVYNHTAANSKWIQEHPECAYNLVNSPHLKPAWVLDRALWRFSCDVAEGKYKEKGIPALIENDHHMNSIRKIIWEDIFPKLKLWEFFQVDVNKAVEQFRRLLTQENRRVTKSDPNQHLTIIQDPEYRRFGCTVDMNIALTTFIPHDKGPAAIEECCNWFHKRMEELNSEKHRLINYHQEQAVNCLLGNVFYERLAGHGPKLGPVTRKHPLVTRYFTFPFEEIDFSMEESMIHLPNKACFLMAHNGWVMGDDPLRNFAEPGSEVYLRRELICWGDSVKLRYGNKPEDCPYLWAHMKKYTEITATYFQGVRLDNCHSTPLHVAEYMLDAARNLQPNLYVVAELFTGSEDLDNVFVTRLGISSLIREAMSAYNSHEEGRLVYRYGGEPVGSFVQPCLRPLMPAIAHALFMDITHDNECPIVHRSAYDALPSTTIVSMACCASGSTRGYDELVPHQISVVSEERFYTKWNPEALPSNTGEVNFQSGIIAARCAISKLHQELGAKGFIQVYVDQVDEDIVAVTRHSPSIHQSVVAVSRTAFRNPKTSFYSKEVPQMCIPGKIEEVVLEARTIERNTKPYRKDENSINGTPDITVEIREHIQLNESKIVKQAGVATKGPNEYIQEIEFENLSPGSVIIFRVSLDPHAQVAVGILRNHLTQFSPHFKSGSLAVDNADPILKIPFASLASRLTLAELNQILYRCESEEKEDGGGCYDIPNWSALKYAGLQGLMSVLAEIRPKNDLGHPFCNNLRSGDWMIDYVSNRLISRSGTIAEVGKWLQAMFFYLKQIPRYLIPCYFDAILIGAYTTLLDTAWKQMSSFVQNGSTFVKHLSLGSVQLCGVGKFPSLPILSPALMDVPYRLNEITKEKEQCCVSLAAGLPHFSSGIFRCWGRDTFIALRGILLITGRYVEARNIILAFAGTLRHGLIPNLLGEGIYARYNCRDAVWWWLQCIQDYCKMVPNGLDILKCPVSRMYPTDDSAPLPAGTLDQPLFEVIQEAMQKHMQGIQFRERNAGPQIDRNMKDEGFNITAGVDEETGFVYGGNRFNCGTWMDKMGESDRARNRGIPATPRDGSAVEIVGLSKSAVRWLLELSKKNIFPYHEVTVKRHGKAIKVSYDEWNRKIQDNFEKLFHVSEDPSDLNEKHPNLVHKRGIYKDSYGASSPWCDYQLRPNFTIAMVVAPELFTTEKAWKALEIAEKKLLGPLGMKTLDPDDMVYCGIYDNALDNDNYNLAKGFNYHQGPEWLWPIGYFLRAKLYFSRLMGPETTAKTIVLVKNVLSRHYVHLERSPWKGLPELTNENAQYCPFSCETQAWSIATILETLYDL

CCCCCCCC(=O)N[C@H](CN1CCCC1)[C@H](O)c1ccc2c(c1)OCCO2 [Formula (I) Hemitartrate]
pIC50 (GM3 in B16/F10 cells; Mus musculus, 72 h incubation, printed range 12-48 nM, read-out: mean IC50 for inhibiting the cell surface presentation of GM3): 7.54
cellular toxicity (GM3 in B16/F10 cells; up to the highest dose (0.6-1000 nM), 72 h): No overt cellular toxicity
inhibition of α-glucosidase I and II (α-glucosidase I and II; concentrations up to 2500 μM): No detectable inhibition
pIC50 (α-glucosidase I and II; read-out: Enzyme specificities, IC50: α-Glucosidase I and II): < 2.60
inhibition of cytosolic debranching enzyme (α-1,6-glucosidase) ([1]; concentrations up to 2500 μM): No detectable inhibition
pIC50 ([1]; read-out: Enzyme specificities, IC50: Glycogen debranching enzyme): < 2.60
presentation of insensitivity to an aversive heat stimulus (hot-plate assay) (Fabry mice): later presentation
urinalysis factors (urine volume, creatinine and sodium levels) (Fabry mice): prevention of deterioration
onset of heat-insensitivity (Fabry-Rag mice): delays onset
urine GL-3 levels (Fabry-Rag mice): reduces
blood GL-3 levels (Fabry-Rag mice; from 3 months of age): does not
tolerability and safety profile [2]: well tolerated
composite primary endpoint met (hemoglobin +0.5 g/dl or platelet count +15%) ([2]; 52 weeks): 19 of the 20
mean (SD) change from baseline in chitotriosidase ([2]; Week 52): -49.9%
mean (SD) change from baseline in liver volume (multiples of normal) ([2]; Week 52): -15.8%
mean (SD) change from baseline in platelet count ([2]; Week 52): +43.6% (137.59%)
mean (SD) change from baseline in spleen volume (multiples of normal) ([2]; Week 52): -40.2%
related adverse events ([2]; all mild and transient): Seven related adverse events in 6 patients
time after which plasma glucosylceramide levels normalized ([2]; all patients): 4 weeks
accumulation in AUC, repeated versus single dose administration [3]: 2 fold
accumulation in Cmax, repeated versus single dose administration [3]: 2 fold
increase in AUC with concomitant paroxetine versus multiple-dose alone [3]: 9 fold
increase in Cmax with concomitant paroxetine versus multiple-dose alone [3]: 7 fold
